Patent US11098040B2, “Compounds and methods of use” (Ferro Therapeutics, Inc., priority 2018, dated 2021)
Where two headings read alike, the source gives them in different places.

What was measured:
MiaPaCa-2 = experiment: Cell viability assay (CellTiter Glo), pancreatic carcinoma MiaPaCa-2; type: cell-based; conditions: Homo sapiens
Experimental: (§1) Cell viability assay was performed to assess the potency of the compounds in human cancer cell lines KP4 (pancreatic ductal adenocarcinoma), MiaPaCa-2 (pancreatic carcinoma), AsPC-1 (pancreatic adenocarcinoma, ascites), 143B (osteosarcoma), and SJSA-1 (osteosarcoma). Selected compounds were also assayed in a human breast epithelial cell line MCF-10A, a nontumorigenic cell line as a control to assess differential activity. Cells at a density of 500-5,000 cells/well were seeded in 96-well plates and incubated at 37° C. overnight. A series of 9 different concentrations of compound stocks (500×) were created by 3-fold serial dilution in DMSO. These compounds were further diluted in culture media and then added to cells so that the final DMSO concentration was equal to 0.25% or less. After 96 hours of incubation, 50 μL of CellTiter Glo reagent (Promega) was added to each well and luminescence was measured after 10 minutes using EnVision (PerkinElmer). Compounds titrated from top concentration of up to 30 μM. The select compounds were tested initially from 30 μM as the top concentration in duplicates (range of 4.6 nM-30 μM). […] Luminescence from cells treated with DMSO alone was set as Max and % of inhibition was calculated as follows: Inhibition %=(Max-Sample value)/Max*100. Data was analyzed using XL-fit software (ID Business Solutions Ltd.). IC50, relative IC50, or % of top inhibition was calculated.
The results of the assay in the pancreatic cell lines are given in Table 15a for PANC1, Table 15b for MiaPaCa-2, and Table 15c for AsPC-1.

KP4 = experiment: Cell viability assay (CellTiter Glo), pancreatic ductal adenocarcinoma KP4; type: cell-based, human; conditions: Homo sapiens
How it was run: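 KP4 cells seeded at 1,000–10,000 per well, treated 96 h with 9-point 3-fold dilutions from 30 μM top (4.6 nM–30 μM, duplicates; ≤0.25% DMSO). Viability by CellTiter Glo luminescence; % inhibition relative to DMSO-only wells, giving IC50, relative IC50 or % top inhibition.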

A549 = experiment: Cell viability assay, A549 cells; type: cell-based; conditions: Homo sapiens, A549, Cell Line A549; read-out: IC50
Experimental: Example 5: Inducer Compound Effect on Growth of A549 and KP4 Cells
as §1, with “in” for “in human”, “line” for “lines”, “adenocarcinoma).” for “adenocarcinoma), MiaPaCa-2 (pancreatic carcinoma), AsPC-1 (pancreatic adenocarcinoma, ascites), 143B (osteosarcoma), and SJSA-1 (osteosarcoma). Selected compounds were also assayed in a human breast epithelial cell line MCF-10A, a nontumorigenic cell line as a control to assess differential activity.”, “1,000-10,000” for “500-5,000”, “All” for “Compounds titrated from top concentration of up to 30 μM. The select”, “calculated. […]” for “calculated.”

[1] = PK profile, IV plasma concentration and PK parameters; type: in vivo; conditions: Balb/C nude, mouse
Experimental: The PK profiles of compounds 148, 149, 150, 156 and 169 are shown below. Compound 156 was formulated in 30% Kolliphor EL (Cremophor EL) in water and compounds 148, 149, 150 and 169 were formulated in 30% Kolliphore EL with 1% poloxamar 407 in water. All compounds were dosed at 5 mg/kg. Blood samples were collected at various time points and analyzed using the method described above.

786-O = experiment: Cell proliferation (Alamar Blue) assay, 786-O renal cell carcinoma, with/without ferrostatin; type: cell-based; conditions: Homo sapiens, 786-0, Cell Line 786-O; read-out: IC50
How it was run: (§2)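 Cells seeded at 5000/well, 16-24 h, then exposed 24 h at 37° C to compound, 10-0.0005 μM in 3-fold dilutions, 1% DMSO final. Alamar Blue fluorescence (ex 540/em 590 nm) read after 1.5 h; IC50 from variable-slope sigmoidal fit.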

SJSA-1 = experiment: Cell proliferation (Alamar Blue) assay, SJSA-1 osteosarcoma, with/without ferrostatin; type: cell-based, human; conditions: Homo sapiens, SJSA-1, Cell Line SJSA-1; read-out: IC50
How it was run: as §2

MCF-10A = experiment: Cell viability assay (CellTiter Glo), non-tumorigenic breast epithelial cell line MCF-10A; type: cell-based; conditions: Homo sapiens, 96 hours
Experimental: as §1
Paclitaxel was used as the positive control for cytotoxicity.

[2] = Whole blood stability, mouse; type: in vitro ADME
Source text: (§3) The results of the assay on stability in blood and IC50 values for pancreatic cancer cell line KP4 are given below in Table 24.

[3] = Whole blood stability, human; type: in vitro ADME
Source text: as §3

[4] = MIA PaCa-2, pancreatic carcinoma, 96 hours, CellTiter Glo, read-out: IC50 MiaPaCa-2
[5] = Cell Line Mia PaCa-2, read-out: IC50
[6] = KP-4, Cell Line KP4, read-out: IC50
[7] = iv, 5 mg/kg, 30% Kolliphor EL in water (Table 10b)
[8] = iv, 5 mg/kg, 30% Kolliphore EL with 1% poloxamar 407 in water

## COC(=O)[C@H]1Cc2c([nH]c3ccccc23)[C@H](c2ccc(C(=O)OC(C)(C)C)cc2)N1C(=O)C(Cl)Cl [Compound 263]
MiaPaCa-2; [4]
  IC50: 5.57 µM
MiaPaCa-2; [5]
  IC50: 5.57 µM
KP4; [6]
  IC50: 10.4 µM
A549
  IC50: 6.22 µM

## C#CC(=O)N1[C@@H](CCCC)Cc2c([nH]c3c(F)cc(F)cc23)[C@@H]1c1ccc(F)cc1 [Compound 156]
[1]; 5 mg/kg IV, BID q12, post 2nd dose, 5 min, 30% Kolliphor EL in water
  concentration at 5 min: 18.5 µg/mL
[1]; 5 mg/kg IV, BID q12, post 2nd dose, 0.25 h, 30% Kolliphor EL in water
  concentration at 0.25 h: 4.64 µg/mL
[1]; 5 mg/kg IV, BID q12, post 2nd dose, 0.5 h, 30% Kolliphor EL in water
  concentration at 0.5 h: 0.984 µg/mL
[1]; 5 mg/kg IV, BID q12, post 2nd dose, 1 h, 30% Kolliphor EL in water
  concentration at 1 h: 0.302 µg/mL
[1]; 5 mg/kg IV, BID q12, post 2nd dose, 2 h, 30% Kolliphor EL in water
  concentration at 2 h: 0.105 µg/mL
[1]; 5 mg/kg IV, BID q12, post 2nd dose, 4 h, 30% Kolliphor EL in water
  concentration at 4 h: 0.0459 µg/mL
[1]; 5 mg/kg IV, BID q12, post 2nd dose, 8 h, 30% Kolliphor EL in water
  concentration at 8 h: 0.0244 µg/mL
[1]; [7]
  C0: 38.2 µg/mL
  MRT inf: 33.2 min
  clearance: 0.87 L/h/kg
  half-life: 180 min
[1]; iv, 5 mg/kg, 30% Kolliphor EL in water (Table 10b), read-out: AUCInf
  AUC(0-inf): 5.92 µg·h/mL
[1]; iv, 5 mg/kg, 30% Kolliphor EL in water (Table 10b), read-out: AUClast
  AUC(0-t): 5.81 µg·h/mL
[1]; iv, 5 mg/kg, 30% Kolliphor EL in water (Table 10b), read-out: Vss
  Vd: 0.48 L/kg
[1]; iv, 5 mg/kg, 30% Kolliphor EL in water (Table 10b), read-out: Vz
  Vd: 3.72 L/kg
A549
  IC50: 4.29 µM
786-O
  IC50: 0.0751 µM
SJSA-1
  IC50: 0.0422 µM

## CC(=O)O[C@H]1C(=O)[C@@]2(C)[C@H]([C@H](OC(=O)c3ccccc3)[C@]3(O)C[C@H](OC(=O)[C@H](O)[C@@H](NC(=O)c4ccccc4)c4ccccc4)C(C)=C1C3(C)C)[C@]1(OC(C)=O)CO[C@@H]1C[C@@H]2O [paclitaxel, Paclitaxel, reference compound]
MCF-10A
  IC50: 0.001 µM

## CN(C)C(=O)[C@H]1Cc2c([nH]c3ccccc23)[C@H](c2ccc(NC(=O)OC(C)(C)C)cc2)N1C(=O)CCl [Example 56]
MiaPaCa-2; [4]
  IC50: 0.759 µM
MCF-10A
  IC50: 1.51 µM

## C[C@H]1Cc2c([nH]c3ccccc23)[C@H](c2ccc(NC34CC5CC(CC(C5)C3)C4)cc2)N1C(=O)CCl [Compound 150, 1-((1S,3S)-1-(4-(((3R,5R,7R)-adamantan-1-yl)amino)phenyl)-3-methyl-1,3,4,9-tetrahydro-2H-pyrido[3,4-b]indol-2-yl)-2-chloroethan-1-one]
[1]; [8]
  C0: 3.4 µg/mL
  Cmax: 2.26 µg/mL
  clearance: 6.78 L/h/kg
[1]; iv, 5 mg/kg, 30% Kolliphore EL with 1% poloxamar 407 in water, read-out: AUC0-t
  AUC(0-t): 0.735 µg·h/mL
[1]; iv, 5 mg/kg, 30% Kolliphore EL with 1% poloxamar 407 in water, read-out: AUC0-∞
  AUC(0-inf): 0.74 µg·h/mL
[1]; iv, 5 mg/kg, 30% Kolliphore EL with 1% poloxamar 407 in water, read-out: Vd
  Vd: 3.25 L/kg
[1]; iv, 5 mg/kg, 30% Kolliphore EL with 1% poloxamar 407 in water, read-out: Vss
  Vd: 1.64 L/kg
[1]; iv, 5 mg/kg, 30% Kolliphore EL with 1% poloxamar 407 in water, time points considered 0.25-2 h
  half-life: 19.8 min
786-O
  IC50: 0.009 µM
SJSA-1
  IC50: 0.008 µM

## CN(C)C(=O)c1ccc([C@H]2c3[nH]c4ccccc4c3C[C@H](C(=O)N(C)C)N2C(=O)CCl)cc1 [Example 38]
MiaPaCa-2; [4]
  IC50: 3.63 µM
MCF-10A
  IC50: 19.6 µM

## COC(=O)[C@H]1Cc2c([nH]c3ccccc23)[C@@H](c2ccc(C(=O)NCCN3CCOCC3)cc2)N1C(=O)CCl [Example 27a]
MiaPaCa-2; [4]
  IC50: 3 µM
KP4; KP-4, 96 h, pancreatic cancer cell line KP4, 96 hours, CellTiter Glo, read-out: IC50 μM KP4
  IC50: 0.1 to 0.5 µM
[2]; 0 min
  Whole Blood Stability % Remaining at 37° C. Mouse: 100.0%
[2]; 30 min
  Whole Blood Stability % Remaining at 37° C. Mouse: 92.5%
[2]; 60 min
  Whole Blood Stability % Remaining at 37° C. Mouse: 81.1%
[3]; 0 min
  Whole Blood Stability % Remaining at 37° C. Human: 100.0%
[3]; 30 min
  Whole Blood Stability % Remaining at 37° C. Human: 54.1%
[3]; 60 min
  Whole Blood Stability % Remaining at 37° C. Human: 40.9%

## COC(=O)[C@H]1Cc2c([nH]c3ccccc23)[C@@H](c2ccc(S(=O)(=O)N(C)C)cc2)N1C(=O)CCl [Example 23a]
MiaPaCa-2; [4]
  IC50: 3.15 µM

## COC(=O)[C@H]1Cc2c([nH]c3ccccc23)[C@H](c2ccc(C(=O)OCC3CCCCC3)cc2)N1C(=O)CCl [Example 89]
MCF-10A
  IC50: 0.42 µM

## COC(=O)[C@H]1Cc2c([nH]c3ccccc23)[C@H](c2ccc(C(=O)NCCN)cc2)N1C(=O)CCl [Example 15]
MiaPaCa-2; [4]
  IC50: 1.32 µM

## CN(C)C(=O)[C@H]1Cc2c([nH]c3ccccc23)[C@@H](c2ccc([Si](C)(C)C)cc2)N1C(=O)CCl [Example 67a]
MiaPaCa-2; [4]
  IC50: 1.36 µM

## COC(=O)[C@H]1Cc2c([nH]c3ccccc23)[C@H](c2ccc(O)cc2)N1C(=O)CCl [Example 265]
MiaPaCa-2; [4]
  IC50: 0.246 µM
MiaPaCa-2; [5]
  IC50: 0.26 µM
KP4; [6]
  IC50: 0.16 µM

## CN(C)C(=O)[C@H]1Cc2c([nH]c3ccccc23)[C@H](c2ccc(C(=O)NC[Si](C)(C)C)cc2)N1C(=O)CCl [Example 66]
MiaPaCa-2; [4]
  IC50: 0.159 µM

## COC(=O)c1ccc([C@H]2c3[nH]c4ccccc4c3C[C@H](C(=O)OC)N2C(=O)/C=C/CN(C)C)cc1 [Compound 273]
MiaPaCa-2; [5]
  IC50: 0.01 µM
KP4; [6]
  IC50: 1.71 µM
A549
  IC50: 3.23 µM

## COC(=O)[C@H]1Cc2c([nH]c3ccccc23)[C@H](c2ccc(C(=O)OC(C)(C)C)cc2)N1C(=O)/C=C/CCl [Example 25]
MiaPaCa-2; [4]
  IC50: 0.858 µM

## COC(=O)[C@H]1Cc2c([nH]c3ccccc23)[C@H](c2ccc(C(=O)OCC3(C)CC3)cc2)N1C(=O)CCl [Example 84]
MCF-10A
  IC50: 0.48 µM

## C[C@H]1Cc2c([nH]c3ccccc23)[C@H](c2ccc(S(F)(F)(F)(F)F)cc2)N1C(=O)CCl [Compound 222]
A549
  IC50: 3.35 µM
786-O
  IC50: 0.17 µM
SJSA-1
  IC50: 0.115 µM
